Measurements reported in publication PMC7047876, “Potent Chimeric Antimicrobial Derivatives of the Medicago truncatula NCR247 Symbiotic Peptide” (Frontiers in Microbiology, 2020).
Values after ≈ are worked out from the molar mass of the structure shown. Where two headings read alike, the source gives them in different places. Peptide text beside a SMILES is read from it.

Columns and labels:
Assay type in all cases: cell-based
Escherichia coli = test system: Escherichia coli
Text: (§1) The pathogenic bacterial strains obtained from the ATCC (United States) and NCTC (National Collection of Type Cultures – England) were the Gram-positive: Enterococcus faecalis (ATCC 29212), Staphylococcus aureus (HNCMO112011), Listeria monocytogenes (ATCC 19111) and the Gram-negative: Pseudomonas aeruginosa (ATCC 27853), Escherichia coli (ATCC 8739), Salmonella enterica (ATCC 13076), Klebsiella pneumoniae (NCTC 13440), Acinetobacter baumannii (ATCC 17978).
(§2) Ca^2+ and Mg^2+ can inhibit the antimicrobial activity of cationic peptides, therefore the MBC and MIC values were also determined in MHB, which unlike PPB contains divalent cations and allows growth of bacteria. Bacteria were grown and prepared similarly except that bacteria were resuspended in MHB. 10 μl of bacteria OD600 = 0.1, supplemented with 45 μl MHB and 45 μl of 2-fold dilution series of peptides, were cultivated for 3 and 20 h at 37°C with shaking. Optical density of each sample was measured (Hidex Sense Microplate Reader with Plate Reader Software version 5064) and 5 μl was placed on LB agar plates after 3 and 20 h treatment. The minimal inhibitory concentration (MIC) corresponded to the lowest concentration, which inhibited growth.

Acinetobacter baumannii = test system: Acinetobacter baumannii
Text: as §1, §2

Staphylococcus aureus = test system: Staphylococcus aureus
Text: as §1, §2

[1] = test system: Acinetobacter baumannii (ATCC 17978); experiment: microbe, parasite or virus in culture; details: read-out: Minimal bactericidal concentration (MBC) A. b.
Text: as §1
(§3) Overnight bacterial cultures grown in LB were diluted and grown to OD600 = 0.2–0.6 at 37°C with shaking. After harvesting and washing bacteria in PPB, the suspensions were adjusted to OD600 = 0.1 corresponding to ∼10^7 bacteria/mL. Antimicrobial activity of the peptides and the antibiotics was determined in PPB in 96 well microplates using 10 μL bacterial suspension and 90 μL of the 2-fold serial dilutions of peptides or antibiotics. Peptides were tested from 25 μM to 0.125 μM whereas the antibiotics; carbenicillin (Cb) from Duchefa Biochemie (Prod.No. C0109.0025) and levofloxacin (Lvx) from Sigma-Aldrich (Prod.No. 28266-10MG-F) from […] to 0.1 μM. The microplates were incubated for 3 h at 37°C with 250 rpm shaking and then 5 μl from each sample was placed on LB agar and the growth of bacteria was monitored after overnight incubation at 37°C. The lowest concentration of the antimicrobial agents, which completely eliminated viable bacteria was the minimal bactericidal concentration (MBC).

[2] = test system: Enterococcus faecalis (ATCC 29212); experiment: microbe, parasite or virus in culture; details: read-out: Minimal bactericidal concentration (MBC) E. f.
Text: as §1, §3

[3] = test system: Staphylococcus aureus (HNCMO112011); experiment: microbe, parasite or virus in culture; details: read-out: Minimal bactericidal concentration (MBC) S. a.
Text: as §1, §3

[4] = test system: Salmonella enterica (ATCC 13076); experiment: microbe, parasite or virus in culture; details: read-out: Minimal bactericidal concentration (MBC) S. e.
Text: as §1, §3

[5] = test system: Pseudomonas aeruginosa (ATCC 27853); experiment: microbe, parasite or virus in culture; details: read-out: Minimal bactericidal concentration (MBC) P. a.
Text: as §1, §3

[6] = test system: Listeria monocytogenes (ATCC 19111); experiment: microbe, parasite or virus in culture; details: read-out: Minimal bactericidal concentration (MBC) L. m.
Text: as §1, §3

[7] = test system: Escherichia coli (ATCC 8739); experiment: microbe, parasite or virus in culture; details: read-out: Minimal bactericidal concentration (MBC) E. c.
Text: as §1, §3

[8] = test system: Klebsiella pneumoniae (NCTC 13440); experiment: microbe, parasite or virus in culture; details: read-out: Minimal bactericidal concentration (MBC) K. p.
Text: as §1, §3

[9] = MHB, 3 h treatment, 37°C (panel assigned)
[10] = MHB, 20 h cultivation, 37°C, optical density (panel assigned)
[11] = MHB, 20 h treatment, 37°C (panel assigned)
[12] = 3 h treatment in PPB (20 mM potassium-phosphate buffer, pH 7.4), 37°C, then plating on LB agar

SMILES | MBC in Mueller Hinton Broth, panel (A), E. c. (Escherichia coli; 3 h) | MBC in Mueller Hinton Broth, panel (B), E. c. (Escherichia coli; 20 h) | MIC in Mueller Hinton Broth, panel (C), E. c. (Escherichia coli; 20 h) | MBC in Mueller Hinton Broth, panel (A), A. b. (Acinetobacter baumannii; 3 h) | MBC in Mueller Hinton Broth, panel (B), A. b. (Acinetobacter baumannii; 20 h) | MIC in Mueller Hinton Broth, panel (C), A. b. (Acinetobacter baumannii; 20 h) | MBC in Mueller Hinton Broth, panel (A), S. a. (Staphylococcus aureus; 3 h) | MBC in Mueller Hinton Broth, panel (B), S. a. (Staphylococcus aureus; 20 h) | MIC in Mueller Hinton Broth, panel (C), S. a. (Staphylococcus aureus; 20 h) | MBC ([1]; ATCC 17978, 3 h, pH 7.4) | MBC ([2]; ATCC 29212, 3 h, pH 7.4) | MBC ([3]; HNCMO112011, 3 h, pH 7.4) | MBC ([4]; ATCC 13076, 3 h, pH 7.4) | MBC ([5]; ATCC 27853, 3 h, pH 7.4) | MBC ([6]; ATCC 19111, 3 h, pH 7.4) | MBC ([7]; ATCC 8739, 3 h, pH 7.4) | MBC ([8]; NCTC 13440, 3 h, pH 7.4) | further results
CC(C)C[C@H](NC(=O)[C@@H]1CCCN1C(=O)[C@H](CCCNC(=N)N)NC(=O)[C@H](CCCNC(=N)N)NC(=O)[C@H](CS)NC(=O)[C@H](CCC(N)=O)NC(=O)[C@@H](N)CCC(N)=O)C(=O)N[C@@H](Cc1ccc(O)cc1)C(=O)N[C@@H](CS)C(=O)N[C@@H](CCCNC(=N)N)C(=O)N[C@@H](CCCNC(=N)N)C(=O)N[C@@H](CCCNC(=N)N)C(N)=O [B, NCR247C] (H-QQCRRPLYCRRR-NH2; N-terminus assumed) | > 25 µM | >25 µM | >25 µM | > 25 µM | >25 µM | >25 µM | > 25 µM | >25 µM | >25 µM | 25 µM (≈ 40.8 µg/mL) | >25 µM | >25 µM | >25 µM | 25 µM (≈ 40.8 µg/mL) | >25 µM | 6.3 µM (≈ 10.3 µg/mL) | >25 µM | –
CC(C)C[C@H](NC(=O)[C@@H]1CCCN1C(=O)[C@H](CCCNC(=N)N)NC(=O)[C@H](CCCNC(=N)N)NC(=O)[C@H](CS)NC(=O)[C@H](CCC(N)=O)NC(=O)[C@@H](N)CCC(N)=O)C(=O)N[C@@H](Cc1ccc(O)cc1)C(=O)N[C@@H](CS)C(=O)N[C@@H](CCCNC(=N)N)C(=O)N[C@@H](CCCNC(=N)N)C(=O)N[C@@H](CCCNC(=N)N)C(=O)N[C@@H](Cc1c[nH]c2ccccc12)C(=O)N[C@@H](CO)C(=O)N[C@@H](Cc1c[nH]cn1)C(=O)N1CCC[C@H]1C(=O)N[C@@H](CCC(N)=O)C(=O)N[C@@H](Cc1ccccc1)C(=O)N[C@@H](CCC(=O)O)C(=O)N[C@@H](CCCCN)C(N)=O [C, NCR247C-StrepII] (H-QQCRRPLYCRRRWSHPQFEK-NH2; N-terminus assumed) | > 25 µM | >25 µM | >25 µM | > 25 µM | >25 µM | >25 µM | > 25 µM | >25 µM | >25 µM | 25 µM (≈ 66.9 µg/mL) | >25 µM | 6.3 µM (≈ 16.8 µg/mL) | >25 µM | 6.3 µM (≈ 16.8 µg/mL) | >25 µM | 6.3 µM (≈ 16.8 µg/mL) | >25 µM | –
CSCC[C@H](NC(=O)[C@H](CCCCN)NC(=O)[C@H](Cc1ccccc1)NC(=O)[C@H](CC(N)=O)NC(=O)[C@H](CC(C)C)NC(=O)[C@@H]1CCCN1C(=O)[C@@H](N)CCCNC(=N)N)C(=O)N[C@@H](CC(C)C)C(=O)N[C@@H](CCCNC(=N)N)C(=O)N[C@@H](Cc1ccccc1)C(=O)N[C@@H](Cc1c[nH]c2ccccc12)C(=O)NCC(=O)N[C@@H](CCC(N)=O)C(=O)N[C@@H](CCC(N)=O)C(=O)N[C@@H](CCC(N)=O)C(=O)N[C@@H](CS)C(=O)N[C@@H](CCCNC(=N)N)C(=O)N[C@@H](CCCNC(=N)N)C(=O)N1CCC[C@H]1C(=O)N[C@@H](CC(C)C)C(=O)N[C@@H](Cc1ccc(O)cc1)C(=O)N[C@@H](CS)C(=O)N[C@@H](CCCNC(=N)N)C(=O)N[C@@H](CCCNC(=N)N)C(=O)N[C@@H](CCCNC(=N)N)C(=O)N[C@@H](Cc1c[nH]c2ccccc12)C(=O)N[C@@H](CO)C(=O)N[C@@H](Cc1c[nH]cn1)C(=O)N1CCC[C@H]1C(=O)N[C@@H](CCC(N)=O)C(=O)N[C@@H](Cc1ccccc1)C(=O)N[C@@H](CCC(=O)O)C(=O)N[C@@H](CCCCN)C(N)=O [E, X1-NCR247C-StrepII] (H-RPLNFKMLRFWGQQQCRRPLYCRRRWSHPQFEK-NH2; N-terminus assumed) | 25 µM (≈ 109 µg/mL) | 6.3 µM (≈ 27.4 µg/mL) | 6.3 µM (≈ 27.4 µg/mL) | 12.5 µM (≈ 54.4 µg/mL) | 6.3 µM (≈ 27.4 µg/mL) | 6.3 µM (≈ 27.4 µg/mL) | 25 µM (≈ 109 µg/mL) | 6.3 µM (≈ 27.4 µg/mL) | 6.3 µM (≈ 27.4 µg/mL) | 3.1 µM (≈ 13.5 µg/mL) | 12.5 µM (≈ 54.4 µg/mL) | 3.1 µM (≈ 13.5 µg/mL) | 3.1 µM (≈ 13.5 µg/mL) | 3.1 µM (≈ 13.5 µg/mL) | 3.1 µM (≈ 13.5 µg/mL) | 3.1 µM (≈ 13.5 µg/mL) | 6.3 µM (≈ 27.4 µg/mL) | –
CC[C@H](C)[C@H](NC(=O)[C@H](CCCCN)NC(=O)[C@H](CCCCN)NC(=O)[C@H](C)NC(=O)[C@H](CC(C)C)NC(=O)[C@H](C)NC(=O)[C@H](C)NC(=O)[C@H](CC(C)C)NC(=O)[C@H](C)NC(=O)[C@@H](N)CCCCN)C(=O)N[C@@H](CC(C)C)C(N)=O [I, X2] (H-KALAALAKKIL-NH2) | – | – | – | – | – | – | – | – | – | – | – | – | – | – | – | – | – | MBC in Mueller Hinton Broth, panel (A), E. c. (Escherichia coli; [9]): > 25 µM; MIC in Mueller Hinton Broth, panel (C), E. c. (Escherichia coli; [10]): >25 µM; MBC in Mueller Hinton Broth, panel (B), E. c. (Escherichia coli; [11]): >25 µM; MBC in Mueller Hinton Broth, panel (A), A. b. (Acinetobacter baumannii; [9]): > 25 µM; MIC in Mueller Hinton Broth, panel (C), A. b. (Acinetobacter baumannii; [10]): 25 µM (≈ 28.5 µg/mL); MBC in Mueller Hinton Broth, panel (B), A. b. (Acinetobacter baumannii; [11]): >25 µM; MBC in Mueller Hinton Broth, panel (A), S. a. (Staphylococcus aureus; [9]): > 25 µM; MIC in Mueller Hinton Broth, panel (C), S. a. (Staphylococcus aureus; [10]): >25 µM; MBC in Mueller Hinton Broth, panel (B), S. a. (Staphylococcus aureus; [11]): >25 µM; MBC [1, 12]: 25 µM (≈ 28.5 µg/mL); MBC [2, 12]: >25 µM; MBC [3, 12]: 25 µM (≈ 28.5 µg/mL); MBC [4, 12]: >25 µM; MBC [5, 12]: 6.3 µM (≈ 7.17 µg/mL); MBC [6, 12]: 25 µM (≈ 28.5 µg/mL); MBC [7, 12]: >25 µM; MBC [8, 12]: >25 µM
